Experiments:
PC3 and CAF co-culture = experiment: 3D organotypic co-culture of PC3 and CAF, EpCAM+/Ki67+ FACS; format: cell-based; settings: PC3 and CAF 3D co-culture, 48 hours
Protocol: (§1) Significance was determined by repeated measures ANOVA.
3D organotypic co-culture: 3D organotypic co-culture was performed in a collagen matrix. PC3 and CAF were combined in a 1:3 ratio in collagen matrix contain 50% rat tail collagen I, 20% of matrigel, 10% of 10x DMEM medium and 1x ready DMEM 5%, 1x ready RPMI 5%, FBS 5% and Nu serum 5%. Cells were treated with docetaxel and SB290157 for 48 hours after 72 hours of expansion in the matrix. The cells were dissociated from the matrix with collagenase and dispase for Ki67 FACS analysis.

PC3 cells = experiment: MTT viability drug interaction study, Chou-Talalay method; format: cell-based; settings: low doses of SB290157 with docetaxel
Protocol: as §1
Statistical analysis: Experiments were done a minimum of three times. Results were shown in terms of mean ± S.D. Student’s t-test and one-way ANOVA were used for comparisons among groups and repeated measured ANOVA was applied for determining the significance of two or more data series. Statistical tests utilized are reported in the figure legends, along with the associated P values was performed by using Origin software (OriginLab, Northampton, MA). Cell viability was examined by using MTT assay as indicated by the manufacturer (Thermo Fisher, Canoga Park, CA) for the calculation of synergistic drug interactions was performed by Chou-Talalay method (R Package).

[1] = system: TRAMPC2 with wild type fibroblasts allografts; experiment: Sub-renal capsule allograft of TRAMPC2 with wild type fibroblasts in C57BL/6 mice; format: in vivo, mouse
Protocol: FIG. 3, panels A-E, depicts Role of C3a in PCa progression. A PCa cell lines incubated in the absence and presence of C3a receptor agonist peptide (48 hr) was western blotted for cell survival and proliferation protein expression. B C57BL/6 mice were allografted with tissue recombinants of luciferase-expressing TRAMPC2 with wild type (wt) or Tlr9^-/-fibroblasts. The mice were treated with saline or […], SB290157. Luciferase bioluminescence was used to image tumor progression. C Mean tumor volume (mm^3) and standard deviation (S.D.) for each treatment condition are depicted (n=8). D H&E and immunohistochemistry for phosphorylated-AKT, phosphorylated-histone-H3 and TUNEL staining of the tumor tissues were performed and quantitated. […] The scale bar represents 10 µm.
To validate the observation of C3a signaling, we allografted mouse prostatic fibroblasts with PCa epithelia into syngeneic C57B/6 mice. We grafted either wild type or TLR9-knockout fibroblasts and recombined them with luciferase-expressing TRAMPC2 cells under the renal capsule. After the tumors were visible by bioluminescent imaging, the mice were treated with either vehicle (control) or SB290157, a C3aR antagonist. […] We were only able to perform immunohistochemistry on the grafts with wild type fibroblasts and TRAMPC2, as not enough tissue was available from grafts with TLR9-knockout fibroblasts. […] The activation of AKT, localized by phosphorylated AKT staining, was elevated in the tumor cells of mouse allografted with wild type fibroblasts and reversed in SB290157 treated mice.
Complement anaphylatoxins have a wide spectrum of proinflammatory effects. C3a is particularly regarded for the chemotaxis of mast cells, basophils and eosinophils. As T lymphocytes are confirmed regulators of tumor progression and known to respond to C3a, we measured the impact of C3a antagonism on T cell recruitment to the tumors.

[2] = system: xenografts of CAF and PC3 cells; experiment: Subcutaneous xenograft of PC3 and CAF in male nude mice
Source text: A Subcutaneous xenografts of PC3 and CAF tumor volumes were longitudinally measured. […] Representative images show each group of mice (inset). […] C Immunolocalization ofphosphorylated-TAK1, complement C3, phosphorylated-AKT, phosphorylated-histoneH3 and TUNEL expression in tumor tissues (brown) was counterstained with hematoxylin (blue). The corresponding bar graph illustrate the mean and S.D. expression of the respective staining (n=5). Data represent the mean ± S.D. by one-way ANOVA (*P <0.05; **P <0.01). The scale bar represents 10 µm.
Data represent the mean ± S.D. among groups by oneway ANOVA (ns - not significant). C H&E images of resulting tumors from each treatment group of subcutaneous xenografted mice.
Animal experiments and cultured cells: Male C57BL/6 mice aged 7-8 weeks were housed in a pathogen-free environment at the Cedars-Sinai Medical Center Animal Facility under the approval of the Institutional Animal Care and Use Committee (# 3679). Sub-renal capsule was performed with wild type mouse fibroblasts (6×10^5) or TLR9^-/- mouse fibroblasts (6×10^5) combining with mouse prostate epithelial cell TRAMP-C2 (2×10^5) . Treatment with SB290157 (1 mg/kg; i.p. daily) was started after two weeks of grafting and continued for five weeks. All mouse kidney, spleen, lymph nodes were harvested after five weeks of treatment were fixed in paraffin embedded for IHC or dissociated for FACS analysis. Subcutaneous xenograft was done in male nude mice aged 7-8 weeks in combination of PC3 (5×10^5) and CAF (15×10^5). […] Harvested tissues were fixed in paraffin embedded for IHC or dissociated for immunoblot analysis.
Immunodetection: Paraffin embedded tissue were processed for Immunohistochemical localization was performed with antibodies against p-AKT, p-TAK, p-histoneH3 (Cell Signaling, Danvers, MA), C3 (Santa Cruz Biotechnology, Santa Cruz, CA), and TUNEL (Thermo Fisher Scientific Inc.) as previously described before (52, 53). All the slides were scanned using Leica SCN400 (Leica Micro System, Buffalo Grove, IL) and analyzed by Tissue IA Optimizer (Leica). The values of positively stained cells were measured in an unbiased manner. C3a concentration of cultured medium and serum was assayed by sandwich ELISA using human C3a ELISA kit (BD Bioscience, San Jose, CA) according to the manufacturer’s instructions. Western blots separated by 10, 12, or 15% SDS-polyacrylamidegels were incubated with primary antibodies for TLR9, DEC205 (LS Bio Seattle, WA), phospho-TAK1, TAK1, phospho-AKT, AKT, phosphor-ERK1/2, ERK, BCL2, beclin, CHOP (Cell Signaling), LC3 (Abcam, Cambridge, MA), C3 (Santa Cruz Biotechnology) and p62 (ProgenBiotechnik, Heidelberg, Germany). Western blots were visualized using alkaline phosphatase-conjugated secondary antibodies (Sigma-Aldrich). The ELISA for anaphylatoxin C3a for performed according to manufacturer guidelines (LSBio Inc.).

[3] = western blot, SB290157 with docetaxel

NC(N)=NCCC[C@H](NC(=O)COCC(c1ccccc1)c1ccccc1)C(=O)O [SB290157]
EpCAM+/Ki67+ proliferative epithelial fraction (PC3 and CAF co-culture): restored the sensitivity of PC3 cells to docetaxel | fractional inhibitory concentration index (PC3 cells): < 0.5 | tumor size ([1]; 1 mg/kg i.p. daily, versus vehicle treated mice): significantly smaller tumor size | CD3+ T cells recruited to the tumors ([1]; FACS of tumor tissues): similarly recruited | CD8+ T cell activation (CD69+ expression) ([1]; FACS of tumor tissues): appreciably downregulated | activation of AKT (phosphorylated AKT staining) ([1]; immunohistochemistry of grafts): reversed | cell death (TUNEL staining) ([1]; immunohistochemistry of grafts): elevate cell death | tumor cell mitosis (phosphorylated-histone H3 expression), tumor proliferation ([1]; immunohistochemistry of grafts, 1 mg/kg i.p. daily, 1 mg/kg): significantly diminish tumor proliferation | tumor cell mitosis (phosphorylated-histone H3 expression), tumor proliferation ([1]; immunohistochemistry of grafts, 1 mg/kg i.p. daily, listed as SB29157, 1 mg/kg): significantly lower | apoptosis (TUNEL) ([2]; SB290157 with docetaxel compared to docetaxel alone): did not result in greater apoptosis | tumor growth ([2]; combined treatment of docetaxel (6 mg/kg/week) and SB290157 (1 mg/kg IP every day), P < 0.05): significantly limited tumor growth | phosphorylation of AKT and phosphorylated histone-H3 (cell survival pathway and mitosis) ([2]; immunohistochemistry, combined treatment of docetaxel and SB290157 versus docetaxel): significantly diminished | AKT and ERK1/2 phosphorylation in tumor tissues [2, 3]: reduced AKT and ERK1/2 phosphorylation | Blc2 in tumor tissues [2, 3]: reduced
